Reference: US10849881B2, “Octahydro-cyclobuta[1,2-c;3,4-c′]dipyrrol-2-yl” (Hoffmann-La Roche Inc., priority 2013, dated 2020)

Target: ATX (human His-tagged) (Homo sapiens (Human), UniProt Q13822)
Experiment: Human ATX enzyme inhibition assay (fluorescence quenching, MR121 substrate)
Type: biochemical
Settings: 30 nM ATX, 1 μM MR121 substrate, 30° C., pH 8.0
Experimental: Human ATX Enzyme Inhibition Assay
ATX inhibition was measured by a fluorescence quenching assay using a specifically labeled substrate analogue (MR121 substrate). To obtain this MR121 substrate, BOC and TBS protected 6-amino-hexanoic acid (R)-3-({2-[3-(2-{2-[2-(2-amino-ethoxy)-ethoxy]-ethoxy}-ethoxy)-propionylamino]-ethoxy}-hydroxy-phosphoryloxy)-2-hydroxy-propyl ester (Ferguson et al., Org Lett 2006, 8 (10), 2023) was labeled with MR121 fluorophore (CAS 185308-24-1, 1-(3-carboxypropyl)-11-ethyl-1,2,3,4,8,9,10,11-octahydro-dipyrido[3,2-b:2′,3′-i]phenoxazin-13-ium) on the free amine of the ethanolamine side and then, after deprotection, subsequently with tryptophan on the side of the aminohexanoic acid.
Assay working solutions were made as follows:
Assay buffer (50 mM Tris-HCl, 140 mM NaCl, 5 mM KCl, 1 mM CaCl2, 1 mM MgCl2, 0.01% Triton-X-100, pH 8.0;
ATX solution: ATX (human His-tagged) stock solution (1.08 mg/mL in 20 mM bicine, pH 8.5, 0.15 M NaCl, 10% glycerol, 0.3% CHAPS, 0.02% NaN3), diluted to 1.4-2.5× final concentration in assay buffer;
MR121 substrate solution: MR121 substrate stock solution (800 μM MR121 substrate in DMSO), diluted to 2-5× final concentration in assay buffer.
Test compounds (10 mM stock in DMSO, 8 μL) were obtained in 384 well sample plates (Corning Costar #3655) and diluted with 8 μL DMSO. Row-wise serial dilutions were made by transferring 8 μL cpd solution to the next row up to row O. The compound and control solutions were mixed five times and 2 μL were transferred to 384 well assay plates (Corning Costar #3702). Then, 15 μL of 41.7 nM ATX solution was added (30 nM final concentration), mixed five times and then incubated for 15 minutes at 30° C. 10 μL of MR121 substrate solution was added (1 μM final concentration), mixed 30 times and then incubated for 15 minutes at 30′C.

| Compound | IC50 |
| --- | --- |
| O=C(c1ccc(OCC(F)(F)F)nc1)N1C[C@@H]2[C@H](C1)[C@H]1CN(C(=O)c3ccc4[nH]nnc4c3)C[C@@H]21 [Example 1.099, (1H-benzotriazol-5-yl)-{(3aS,3bS,6aR,6bR)-5-[6-(2,2,2-trifluoro-ethoxy)-pyridine-3-carbonyl]-octahydro-cyclobuta[1,2-c;3,4-c′]dipyrrol-2-yl}-methanone] | 277 nM |
| CCOc1cc(C(=O)N2C[C@@H]3[C@H]4CN(C(=O)c5ccc6[nH]nnc6c5)C[C@H]4[C@@H]3C2)nc2c1CCCC2 [Example 1.088] | 41.3 nM |
| CCOc1cc(C(=O)N2C[C@@H]3[C@H](C2)[C@H]2CN(C(=O)c4ccc5[nH]nnc5c4F)C[C@@H]32)nc2ccccc12 [Example 1.110, [(3aS,3bR,6aS,6bR)-5-(4-ethoxy-quinoline-2-carbonyl)-octahydro-cyclobuta[1,2-c;3,4-c′]dipyrrol-2-yl]-(4-fluoro-1H-benzotriazol-5-yl)-methanone] | 32.5 nM |
| O=C(c1ccc(-c2ccc(Cl)cc2)nc1)N1C[C@@H]2[C@H](C1)[C@H]1CN(C(=O)[C@@H]3CCc4[nH]nnc4C3)C[C@@H]21 [Example 1.063, [6-(4-chloro-phenyl)-pyridin-3-yl]-[(3aR,3bS,6aR,6bS)-5-((R)-4,5,6,7-tetrahydro-1H-benzotriazole-5-carbonyl)-octahydro-cyclobuta[1,2-c;3,4-c′]dipyrrol-2-yl]-methanone] | 1 nM |
| O=C(c1ccc2c(c1)CCCC2)N1C[C@@H]2[C@H](C1)[C@H]1CN(C(=O)c3ccc4[nH]nnc4c3)C[C@@H]21 [Example 1.054, [(3aS,3bS,6aR,6bR)-5-(1H-benzotriazole-5-carbonyl)-octahydro-cyclobuta[1,2-c;3,4-c′]dipyrrol-2-yl]-(5,6,7,8-tetrahydro-naphthalen-2-yl)-methanone] | 59.2 nM |
| O=C(c1ccc2[nH]nnc2c1)N1C[C@@H]2[C@H](C1)[C@H]1CN(C(=O)C3CCc4ccccc4C3)C[C@@H]21 (stereo partly drawn) [Example 1.031, [(3aS,3bR,6aS,6bR)-5-(1H-benzotriazole-5-carbonyl)-octahydro-cyclobuta[1,2-c;3,4-c′]dipyrrol-2-yl]-(1,2,3,4-tetrahydro-naphthalen-2-yl)-methanone] | 224 nM |
| O=C(c1cnc(OCC(F)(F)F)c(C2CC2)c1)N1C[C@@H]2[C@H](C1)[C@H]1CN(C(=O)c3ccc4[nH]nnc4c3)C[C@@H]21 [Example 1.104, (1H-benzotriazol-5-yl)-{(3aS,3bS,6aR,6bR)-5-[5-cyclopropyl-6-(2,2,2-trifluoro-ethoxy)-pyridine-3-carbonyl]-octahydro-cyclobuta[1,2-c;3,4-c′]dipyrrol-2-yl}-methanone] | 10 nM |
| CC1(C)CC(C(=O)N2C[C@@H]3[C@H]4CN(C(=O)c5ccc6[nH]nnc6c5)C[C@H]4[C@@H]3C2)Cc2ccccc21 (stereo partly drawn) [Example 1.055, [(3aS,3bR,6aS,6bR)-5-(1H-benzotriazole-5-carbonyl)-octahydro-cyclobuta[1,2-c;3,4-c′]dipyrrol-2-yl]-(4,4-dimethyl-1,2,3,4-tetrahydro-naphthalen-2-yl)-methanone] | 22 nM |
| O=C(c1cnc(OCC(F)(F)F)c(-c2ccco2)c1)N1C[C@@H]2[C@H](C1)[C@H]1CN(C(=O)c3ccc4[nH]nnc4c3)C[C@@H]21 [Example 1.108, (1H-benzotriazol-5-yl)-{(3aS,3bS,6aR,6bR)-5-[5-furan-2-yl-6-(2,2,2-trifluoro-ethoxy)-pyridine-3-carbonyl]-octahydro-cyclobuta[1,2-c;3,4-c′]dipyrrol-2-yl}-methanone] | 6 nM |
| COc1ccc2cc(C(=O)N3C[C@@H]4[C@H](C3)[C@H]3CN(C(=O)c5ccc6[nH]nnc6c5)C[C@@H]43)ccc2c1 [Example 1.005, [(3aS,3bS,6aR,6bR)-5-(1H-benzotriazole-5-carbonyl)-octahydro-cyclobuta[1,2-c;3,4-c′]dipyrrol-2-yl]-(6-methoxy-naphthalen-2-yl)-methanone] | 120 nM |
| O=C(c1ccc2[nH]nnc2c1)N1C[C@@H]2[C@H](C1)[C@H]1CN(C(=O)c3cc(OCC4CC4)c(Cl)cn3)C[C@@H]21 [Example 1.086, (1H-benzotriazol-5-yl)-[(3aS,3bR,6aS,6bR)-5-(5-chloro-4-cyclopropylmethoxy-pyridine-2-carbonyl)-octahydro-cyclobuta[1,2-c;3,4-c′]dipyrrol-2-yl]-methanone] | 17 nM |
| (1H-benzotriazol-yl)-{(3aS,3bS,6aR,6bR)-5-[5-bromo-2-methyl-6-(2,2,2-trifluoro-ethoxy)-pyridine-3-carbonyl]-octahydro-cyclobuta[1,2-c;3,4-c′]dipyrrol-2-yl}-methanone [Example 1.103] | 27 nM |
| O=C(c1ccc2[nH]nnc2c1)N1C[C@@H]2[C@H](C1)[C@H]1CN(C(=O)c3ccc4ccccc4n3)C[C@@H]21 [Example 1.038, [(3aR,3bS,6aR,6bS)-5-(1H-benzotriazole-5-carbonyl)-octahydro-cyclobuta[1,2-c;3,4-c′]dipyrrol-2-yl]-quinolin-2-yl-methanone] | 687 nM |
| O=C(c1cnc(OCC(F)(F)F)c(Cl)c1)N1C[C@@H]2[C@H](C1)[C@H]1CN(C(=O)c3ccc4[nH]nnc4c3)C[C@@H]21 [Example 1.109, (1H-benzotriazol-5-yl)-{(3aS,3bS,6aR,6bR)-5-[5-chloro-6-(2,2,2-trifluoro-ethoxy)-pyridine-3-carbonyl]-octahydro-cyclobuta[1,2-c;3,4-c′]dipyrrol-2-yl}-methanone] | 301 nM |
| O=C1CC(C(=O)N2C[C@@H]3[C@H]4CN(C(=O)c5ccc6[nH]nnc6c5)C[C@H]4[C@@H]3C2)Cc2ccccc21 (stereo partly drawn) [Example 1.041, 3-[(3aS,3bR,6aS,6bR)-5-(1H-benzotriazole-5-carbonyl)-octahydro-cyclobuta[1,2-c;3,4-c′]dipyrrole-2-carbonyl]-3,4-dihydro-2H-naphthalen-1-one] | 538 nM |

Further compounds by falling IC50, results first:

| IC50 | Compound |
| --- | --- |
| 208 nM | O=C(c1ccc2[nH]nnc2c1)N1C[C@@H]2[C@H](C1)[C@H]1CN(C(=O)c3cc4cc(Cl)ccc4[nH]3)C[C@@H]21 [Example 1.048, [(3aR,3bS,6aR,6bS)-5-(1H-benzotriazole-5-carbonyl)-octahydro-cyclobuta[1,2-c;3,4-c′]dipyrrol-2-yl]-(5-chloro-1H-indol-2-yl)-methanone] |
| 104 nM | O=C(c1ccc2[nH]nnc2c1)N1C[C@@H]2[C@H](C1)[C@H]1CN(C(=O)c3cc4ccc(Cl)cc4[nH]3)C[C@@H]21 [Example 1.033, [(3aR,3bS,6aR,6bS)-5-(1H-benzotriazole-5-carbonyl)-octahydro-cyclobuta[1,2-c;3,4-c′]dipyrrol-2-yl]-(6-chloro-1H-indol-2-yl)-methanone] |
| 36 nM | O=C(COc1ccc(OC(F)(F)F)cc1)N1C[C@@H]2[C@H](C1)[C@H]1CN(C(=O)c3ccc4[nH]nnc4c3)C[C@@H]21 [Example 1.008, 1-[(3aR,3bS,6aR,6bS)-5-(1H-benzotriazole-5-carbonyl)-octahydro-cyclobuta[1,2-c;3,4-c′]dipyrrol-2-yl]-2-(4-trifluoromethoxy-phenoxy)-ethanone] |
| 28 nM | COc1nc(C(=O)N2C[C@@H]3[C@H]4CN(C(=O)c5ccc6[nH]nnc6c5)C[C@H]4[C@@H]3C2)cc2ccccc12 [Example 1.046, [(3aR,3bS,6aR,6bS)-5-(1H-benzotriazole-5-carbonyl)-octahydro-cyclobuta[1,2-c;3,4-c′]dipyrrol-2-yl]-(1-methoxy-isoquinolin-3-yl)-methanone] |
| 19 nM | CCOc1cc(C(=O)N2C[C@@H]3[C@H]4CN(C(=O)c5ccc6[nH]nnc6c5)C[C@H]4[C@@H]3C2)nc2cc(OC)ccc12 [Example 1.090, (1H-benzotriazol-5-yl)-[(3aS,3bR,6aS,6bR)-5-(4-ethoxy-7-methoxy-quinoline-2-carbonyl)-octahydro-cyclobuta[1,2-c;3,4-c′]dipyrrol-2-yl]-methanone] |
| 3 nM | CCn1ccc2c(OCC(F)(F)F)c(C(=O)N3C[C@@H]4[C@H]5CN(C(=O)c6ccc7[nH]nnc7c6)C[C@H]5[C@@H]4C3)ccc21 [Example 1.082, [(3aS,3bS,6aR,6bR)-5-(1H-benzotriazole-5-carbonyl)-octahydro-cyclobuta[1,2-c;3,4-c′]dipyrrol-2-yl]-[1-ethyl-4-(2,2,2-trifluoro-ethoxy)-1H-indol-5-yl]-methanone] |
| 2.5 nM | CCOc1cc(C(=O)N2C[C@@H]3[C@H]4CN(C(=O)c5ccc6[nH]nnc6c5)C[C@H]4[C@@H]3C2)nc2ccc(C(F)(F)F)cc12 [Example 1.080, (1H-benzotriazol-5-yl)-[(3aS,3bR,6aS,6bR)-5-(4-ethoxy-6-trifluoromethyl-quinoline-2-carbonyl)-octahydro-cyclobuta[1,2-c;3,4-c′]dipyrrol-2-yl]-methanone] |
